Data on four compounds can be found in ChEMBL document CHEMBL1143986, “Probing lipid- and drug-binding domains with fluorescent dyes” (Bioorg Med Chem, 2008).

Data set [1] can be described thus: Aqueous solubility of the compound. It counts as physicochemical.
Another data set concerns the target Albumin (Bos taurus, UniProt P02769). Kind of data set: Binding affinity to bovine serum albumin.

Bounds are passed on as bounds.

Chain of Albumin (P02769 whole entry): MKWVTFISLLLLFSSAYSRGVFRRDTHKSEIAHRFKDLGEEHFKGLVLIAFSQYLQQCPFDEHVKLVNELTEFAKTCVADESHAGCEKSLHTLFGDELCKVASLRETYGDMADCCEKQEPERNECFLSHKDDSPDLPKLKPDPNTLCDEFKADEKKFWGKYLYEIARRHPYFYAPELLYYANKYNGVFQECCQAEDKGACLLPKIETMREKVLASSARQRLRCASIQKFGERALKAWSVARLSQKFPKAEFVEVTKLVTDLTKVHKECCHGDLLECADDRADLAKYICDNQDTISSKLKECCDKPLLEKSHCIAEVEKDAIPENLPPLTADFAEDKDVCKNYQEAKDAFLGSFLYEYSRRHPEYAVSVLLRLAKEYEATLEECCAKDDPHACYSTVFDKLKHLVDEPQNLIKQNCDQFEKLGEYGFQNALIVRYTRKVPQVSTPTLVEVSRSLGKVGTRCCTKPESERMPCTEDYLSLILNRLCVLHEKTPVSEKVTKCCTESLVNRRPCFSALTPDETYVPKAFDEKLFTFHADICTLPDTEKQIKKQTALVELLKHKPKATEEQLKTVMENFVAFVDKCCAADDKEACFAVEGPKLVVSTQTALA

For the compound `CCN(CC)c1ccc2nc3c4ccc(OCCCC(=O)O)cc4c(=O)cc-3oc2c1`, the solubility (commonly the concentration that dissolves in the medium under given conditions) in data set [1] is above 100 µM.
The same measure, in the same setting: as for `CCN(CC)c1ccc2nc3c4ccc(OCCCC(=O)O)cc4c(=O)c(Br)c-3oc2c1`, the figure is above 100 µM.
Consider `CCN(CC)c1ccc2nc3c4cc(OCCCC(=O)O)ccc4c(=O)cc-3oc2c1`, for which the EC50 (commonly the concentration at which the effect is half-maximal) on Albumin was 1.5 µM. Moreover, in data set [1], the solubility was above 100 µM.
For the compound `CCN(CC)c1ccc2nc3c4cc(OCCCC(=O)O)ccc4c(=O)c(Br)c-3oc2c1`, the solubility in data set [1] is above 100 µM.
